{"source": "ChEMBL document CHEMBL5705887", "about": "“Distinct concentration-dependent effects of the polo-like kinase 1-specific inhibitor GSK461364A, including differential effect on apoptosis” (Cancer Res, 2009)", "key": {"[1]": {"tested_on": "OVCAR-4", "assay": "Antiproliferative activity against human OVCAR-4 cells assessed as growth inhibition incubated for 72 hrs by celltiter-glo assay", "assay_type": "functional"}, "[2]": {"tested_on": "MDA-MB-468", "assay": "Antiproliferative activity against human MDA-MB-468 cells assessed as viable cell signal at maximum growth inhibition incubated for 72 hrs by celltiter-glo assay relative to control", "assay_type": "functional"}, "[3]": {"tested_on": "A2780", "assay": "Antiproliferative activity against human A2780 cells assessed as viable cell signal at maximum growth inhibition incubated for 72 hrs by celltiter-glo assay relative to control", "assay_type": "functional"}, "[4]": {"tested_on": "SK-MEL-5", "assay": "Antiproliferative activity against human SK-MEL-5 cells assessed as growth inhibition incubated for 72 hrs by celltiter-glo assay", "assay_type": "functional"}, "[5]": {"tested_on": "MIA PaCa-2", "assay": "Antiproliferative activity against human MIA PaCa-2 cells assessed as growth inhibition incubated for 72 hrs by celltiter-glo assay", "assay_type": "functional"}, "[6]": {"tested_on": "HT-29", "assay": "Induction of mitotic arrest in human HT-29 cells assessed as effect on pHH3 level at 10 to 250 nmol/L incubated for 19 hrs by ELISA analysis", "assay_type": "functional, cell-based", "conditions": "dose 10-250 nmol/L"}, "[7]": {"tested_on": "PANC-08-13", "assay": "Antiproliferative activity against human PANC-08-13 cells assessed as viable cell signal at maximum growth inhibition incubated for 72 hrs by celltiter-glo assay relative to control", "assay_type": "functional"}, "[8]": {"target": "Cytoplasmic tyrosine-protein kinase BMX (Homo sapiens) (UniProt P51813)", "sequence (P51813 whole entry)": "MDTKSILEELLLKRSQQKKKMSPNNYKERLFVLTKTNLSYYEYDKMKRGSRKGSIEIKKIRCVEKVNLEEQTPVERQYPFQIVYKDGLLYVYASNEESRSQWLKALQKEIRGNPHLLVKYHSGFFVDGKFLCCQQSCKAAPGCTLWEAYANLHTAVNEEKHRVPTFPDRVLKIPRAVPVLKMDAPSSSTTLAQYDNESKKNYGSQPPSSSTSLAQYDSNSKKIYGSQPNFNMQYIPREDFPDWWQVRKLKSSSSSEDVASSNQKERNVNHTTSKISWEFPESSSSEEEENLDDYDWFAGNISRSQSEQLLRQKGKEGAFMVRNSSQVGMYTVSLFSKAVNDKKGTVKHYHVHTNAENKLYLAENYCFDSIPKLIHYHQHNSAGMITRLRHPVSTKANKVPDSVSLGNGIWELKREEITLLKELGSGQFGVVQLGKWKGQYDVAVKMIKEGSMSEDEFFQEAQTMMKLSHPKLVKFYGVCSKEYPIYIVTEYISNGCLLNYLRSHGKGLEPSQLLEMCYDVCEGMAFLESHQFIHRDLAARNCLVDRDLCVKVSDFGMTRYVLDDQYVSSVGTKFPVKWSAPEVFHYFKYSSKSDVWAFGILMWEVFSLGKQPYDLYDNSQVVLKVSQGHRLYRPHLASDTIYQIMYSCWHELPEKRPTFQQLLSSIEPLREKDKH", "assay": "Inhibition of N-terminal his6-tagged recombinant human BMX expressed in baculovirus Sf21 insect cells at 10 uM relative to control"}, "[9]": {"tested_on": "SK-MEL-28", "assay": "Antiproliferative activity against human SK-MEL-28 cells assessed as of viable cell signal at minimum maximum cell growth incubated for 72 hrs by celltiter-glo assay relative to control", "assay_type": "functional"}, "[10]": {"tested_on": "MDA-MB-231", "assay": "Antiproliferative activity against human MDA-MB-231 cells assessed as growth inhibition incubated for 72 hrs by celltiter-glo assay", "assay_type": "functional"}, "[11]": {"target": "Serine/threonine-protein kinase BRSK2 (Homo sapiens) (UniProt Q8IWQ3)", "sequence (Q8IWQ3 whole entry)": "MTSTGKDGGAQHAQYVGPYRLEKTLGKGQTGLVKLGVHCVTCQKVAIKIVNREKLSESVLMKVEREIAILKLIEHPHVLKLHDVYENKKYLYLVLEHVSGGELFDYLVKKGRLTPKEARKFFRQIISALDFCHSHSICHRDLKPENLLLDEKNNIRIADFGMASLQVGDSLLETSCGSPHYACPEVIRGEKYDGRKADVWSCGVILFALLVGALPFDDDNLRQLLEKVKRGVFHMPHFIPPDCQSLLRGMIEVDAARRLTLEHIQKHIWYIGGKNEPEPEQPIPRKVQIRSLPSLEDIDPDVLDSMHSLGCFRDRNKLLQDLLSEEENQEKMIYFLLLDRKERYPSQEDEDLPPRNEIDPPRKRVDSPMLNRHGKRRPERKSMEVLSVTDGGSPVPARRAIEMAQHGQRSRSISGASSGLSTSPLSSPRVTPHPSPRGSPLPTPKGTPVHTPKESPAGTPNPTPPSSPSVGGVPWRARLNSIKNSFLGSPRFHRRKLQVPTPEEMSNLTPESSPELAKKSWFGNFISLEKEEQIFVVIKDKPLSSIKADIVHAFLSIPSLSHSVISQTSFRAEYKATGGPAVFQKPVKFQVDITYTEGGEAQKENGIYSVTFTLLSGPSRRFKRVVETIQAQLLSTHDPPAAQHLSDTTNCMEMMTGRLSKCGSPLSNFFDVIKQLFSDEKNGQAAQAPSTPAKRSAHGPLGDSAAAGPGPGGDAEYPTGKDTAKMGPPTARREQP", "assay": "Inhibition of full length N-terminal his6-tagged recombinant human BRSK2 expressed in baculovirus Sf21 cells at 10 uM relative to control"}, "[12]": {"tested_on": "ASPC1", "assay": "Antiproliferative activity against human ASPC1 cells assessed as of viable cell signal at minimum maximum cell growth incubated for 72 hrs by celltiter-glo assay relative to control", "assay_type": "functional"}, "[13]": {"tested_on": "A704", "assay": "Antiproliferative activity against human A704 cells assessed as growth inhibition incubated for 72 hrs by celltiter-glo assay", "assay_type": "functional"}, "[14]": {"tested_on": "PANC-08-13", "assay": "Antiproliferative activity against human PANC-08-13 cells assessed as of viable cell signal at minimum maximum cell growth incubated for 72 hrs by celltiter-glo assay relative to control", "assay_type": "functional"}, "[15]": {"tested_on": "NCI-H82", "assay": "Antiproliferative activity against human NCI-H82 cells assessed as viable cell signal at maximum growth inhibition incubated for 72 hrs by celltiter-glo assay relative to control", "assay_type": "functional"}, "[16]": {"tested_on": "Raji", "assay": "Antiproliferative activity against human Raji cells assessed as growth inhibition incubated for 72 hrs by celltiter-glo assay", "assay_type": "functional"}, "[17]": {"tested_on": "COLO 205", "assay": "Antiproliferative activity against human COLO 205 cells assessed as growth inhibition incubated for 72 hrs by celltiter-glo assay", "assay_type": "functional"}, "[18]": {"target": "Testis-specific serine/threonine-protein kinase 1 (Homo sapiens) (UniProt Q9BXA7)", "sequence (Q9BXA7 whole entry)": "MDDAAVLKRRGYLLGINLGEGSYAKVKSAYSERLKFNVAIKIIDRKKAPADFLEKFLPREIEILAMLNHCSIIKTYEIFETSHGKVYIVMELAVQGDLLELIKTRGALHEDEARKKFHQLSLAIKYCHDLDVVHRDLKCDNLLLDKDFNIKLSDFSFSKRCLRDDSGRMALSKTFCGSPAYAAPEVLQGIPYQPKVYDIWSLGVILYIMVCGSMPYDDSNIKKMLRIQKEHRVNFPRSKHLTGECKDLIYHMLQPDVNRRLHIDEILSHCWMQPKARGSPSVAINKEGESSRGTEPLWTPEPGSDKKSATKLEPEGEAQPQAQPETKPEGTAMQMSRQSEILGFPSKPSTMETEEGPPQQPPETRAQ", "assay": "Inhibition of full length his6-tagged recombinant human TSSK1 expressed in baculovirus Sf21 insect cells at 10 uM relative to control"}, "[19]": {"tested_on": "Hep 3B2", "assay": "Antiproliferative activity against human Hep3B cells assessed as growth inhibition incubated for 72 hrs by celltiter-glo assay", "assay_type": "functional"}, "[20]": {"tested_on": "HCT-116", "assay": "Antiproliferative activity against human HCT-116 cells assessed as viable cell signal at maximum growth inhibition incubated for 72 hrs by celltiter-glo assay relative to control", "assay_type": "functional"}, "[21]": {"tested_on": "NCI-H727", "assay": "Antiproliferative activity against human NCI-H727 cells assessed as viable cell signal at maximum growth inhibition incubated for 72 hrs by celltiter-glo assay relative to control", "assay_type": "functional"}, "[22]": {"tested_on": "OVCAR-8", "assay": "Antiproliferative activity against human OVCAR-8 cells assessed as of viable cell signal at minimum maximum cell growth incubated for 72 hrs by celltiter-glo assay relative to control", "assay_type": "functional"}, "[23]": {"tested_on": "DLD-1", "assay": "Antiproliferative activity against human DLD-1 cells assessed as growth inhibition incubated for 72 hrs by celltiter-glo assay", "assay_type": "functional"}, "[24]": {"tested_on": "T-24", "assay": "Antiproliferative activity against human T24 cells assessed as viable cell signal at maximum growth inhibition incubated for 72 hrs by celltiter-glo assay relative to control", "assay_type": "functional"}, "[25]": {"tested_on": "BT-549", "assay": "Antiproliferative activity against human BT-549 cells assessed as growth inhibition incubated for 72 hrs by celltiter-glo assay", "assay_type": "functional"}, "[26]": {"tested_on": "SK-MEL-28", "assay": "Antiproliferative activity against human SK-MEL-28 cells assessed as viable cell signal at maximum growth inhibition incubated for 72 hrs by celltiter-glo assay relative to control", "assay_type": "functional"}, "[27]": {"tested_on": "Calu-1", "assay": "Antiproliferative activity against human Calu-1 cells assessed as growth inhibition incubated for 72 hrs by celltiter-glo assay", "assay_type": "functional"}, "[28]": {"tested_on": "A-427", "assay": "Antiproliferative activity against human A-427 cells assessed as viable cell signal at maximum growth inhibition incubated for 72 hrs by celltiter-glo assay relative to control", "assay_type": "functional"}, "[29]": {"tested_on": "HL-60", "assay": "Antiproliferative activity against human HL-60 cells assessed as growth inhibition incubated for 72 hrs by celltiter-glo assay", "assay_type": "functional"}, "[30]": {"tested_on": "DLD-1", "assay": "Antiproliferative activity against human DLD-1 cells assessed as of viable cell signal at minimum maximum cell growth incubated for 72 hrs by celltiter-glo assay relative to control", "assay_type": "functional"}, "[31]": {"tested_on": "BT-474", "assay": "Antiproliferative activity against human BT-474 cells assessed as growth inhibition incubated for 72 hrs by celltiter-glo assay", "assay_type": "functional"}, "[32]": {"tested_on": "COLO 205", "assay": "Antitumor activity against human COLO 205 cells xenografted in Nude mouse assessed as increase in pIk1 level at 50 to 100 mg/kg, ip administered one dose every 2 day repeated for 12 days by immunohistochemistry analysis", "assay_type": "functional, organism-based", "conditions": "dose 50-100 mg/kg, time 12.0 day"}, "[33]": {"tested_on": "U2OS", "assay": "Induction of mitotic arrest in human U2OS cells expressing fused cyclin B1-GFP at 10 to 250 nmol/L incubated for 24 hrs by image based analysis", "assay_type": "functional, cell-based", "conditions": "dose 10-250 nmol/L"}, "[34]": {"tested_on": "NCI-H157", "assay": "Antiproliferative activity against human NCI-H157 cells assessed as of viable cell signal at minimum maximum cell growth incubated for 72 hrs by celltiter-glo assay relative to control", "assay_type": "functional"}, "[35]": {"tested_on": "NCI-N87", "assay": "Antiproliferative activity against human NCI-N87 cells assessed as growth inhibition incubated for 72 hrs by celltiter-glo assay", "assay_type": "functional"}, "[36]": {"tested_on": "BT-549", "assay": "Antiproliferative activity against human BT-549 cells assessed as viable cell signal at maximum growth inhibition incubated for 72 hrs by celltiter-glo assay relative to control", "assay_type": "functional"}, "[37]": {"tested_on": "NCI-H358", "assay": "Antiproliferative activity against human NCI-H358 cells assessed as viable cell signal at maximum growth inhibition incubated for 72 hrs by celltiter-glo assay relative to control", "assay_type": "functional"}, "[38]": {"tested_on": "SK-MEL3", "assay": "Antiproliferative activity against human SK-MEL3 cells assessed as of viable cell signal at minimum maximum cell growth incubated for 72 hrs by celltiter-glo assay relative to control", "assay_type": "functional"}, "[39]": {"tested_on": "A549", "assay": "Induction of mitotic arrest in human A549 cells assessed as disordered spindle formation at 20 nmol/L incubated for 16 hrs by alpha-tubulin/DAPI staining based confocal microscopic analysis", "assay_type": "functional, cell-based"}, "[40]": {"tested_on": "SJSA-1", "assay": "Antiproliferative activity against human SJSA-1 cells assessed as of viable cell signal at minimum maximum cell growth incubated for 72 hrs by celltiter-glo assay relative to control", "assay_type": "functional"}}, "note": "Active and inactive are the calls of the source. No cut-off for these calls is given here."}
{"compound": "C[C@@H](Oc1cc(-n2cnc3ccc(CN4CCN(C)CC4)cc32)sc1C(N)=O)c1ccccc1C(F)(F)F", "note": "[GSK-461364]", "values": [{"measurement": "GI50", "setting": "[1]", "value": 24.2, "unit": "nM"}, {"measurement": "Emax", "setting": "[2]", "value": 458, "unit": "%"}, {"measurement": "Emax", "setting": "[3]", "value": 977, "unit": "%"}, {"measurement": "GI50", "setting": "[4]", "value": 28.4, "unit": "nM"}, {"measurement": "GI50", "setting": "[5]", "value": 39.9, "unit": "nM"}, {"measurement": "Activity", "setting": "[6]", "value": "Active"}, {"measurement": "Emax", "setting": "[7]", "value": 256, "unit": "%"}, {"measurement": "inhibition", "setting": "[8]", "value": 57, "unit": "%"}, {"measurement": "Emin", "setting": "[9]", "value": 199.6, "unit": "%"}, {"measurement": "GI50", "setting": "[10]", "value": 9.15, "unit": "nM"}, {"measurement": "inhibition", "setting": "[11]", "value": 79, "unit": "%"}, {"measurement": "Emin", "setting": "[12]", "value": 114, "unit": "%"}, {"measurement": "GI50", "setting": "[13]", "value": 183, "unit": "nM"}, {"measurement": "Emin", "setting": "[14]", "value": 131.3, "unit": "%"}, {"measurement": "Emax", "setting": "[15]", "value": 398, "unit": "%"}, {"measurement": "GI50", "setting": "[16]", "value": 25.3, "unit": "nM"}, {"measurement": "GI50", "setting": "[17]", "value": 14.2, "unit": "nM"}, {"measurement": "inhibition", "setting": "[18]", "value": 61, "unit": "%"}, {"measurement": "GI50", "setting": "[19]", "value": 35.8, "unit": "nM"}, {"measurement": "Emax", "setting": "[20]", "value": 545, "unit": "%"}, {"measurement": "Emax", "setting": "[21]", "value": 262, "unit": "%"}, {"measurement": "Emin", "setting": "[22]", "value": 46.5, "unit": "%"}, {"measurement": "GI50", "setting": "[23]", "value": 48.9, "unit": "nM"}, {"measurement": "Emax", "setting": "[24]", "value": 692, "unit": "%"}, {"measurement": "GI50", "setting": "[25]", "value": 23.1, "unit": "nM"}, {"measurement": "Emax", "setting": "[26]", "value": 353, "unit": "%"}, {"measurement": "GI50", "setting": "[27]", "value": 186, "unit": "nM"}, {"measurement": "Emax", "setting": "[28]", "value": 218, "unit": "%"}, {"measurement": "GI50", "setting": "[29]", "value": 17.5, "unit": "nM"}, {"measurement": "Emin", "setting": "[30]", "value": 441.3, "unit": "%"}, {"measurement": "GI50", "setting": "[31]", "value": 7090, "unit": "nM"}, {"measurement": "Activity", "setting": "[32]", "value": "Active"}, {"measurement": "Activity", "setting": "[33]", "value": "inactive"}, {"measurement": "Emin", "setting": "[34]", "value": 95.3, "unit": "%"}, {"measurement": "GI50", "setting": "[35]", "value": 21.5, "unit": "nM"}, {"measurement": "Emax", "setting": "[36]", "value": 265, "unit": "%"}, {"measurement": "Emax", "setting": "[37]", "value": 308, "unit": "%"}, {"measurement": "Emin", "setting": "[38]", "value": 112.5, "unit": "%"}, {"measurement": "Activity", "setting": "[39]", "value": "Active"}, {"measurement": "Emin", "setting": "[40]", "value": 123.8, "unit": "%"}]}
